Measured values: ChEMBL document CHEMBL1126936, “Synthesis and antitumor activity of 10-propargyl-10-deazaaminopterin” (J Med Chem, 1993)
pIC50, pKi: −log10 of the molar value. One block for each molecule: values may come before it.

How the values were obtained:
Mus musculus [1] = test: Average E0771 solid murine mammary tumor volume in BDF1 female mice (n=5) at 36 mg/kg at 10 day post treatment point; type: functional
Mus musculus [2] = species on record: Mus musculus; test: (§1) Transport influx which is determined by competitive binding for the transport protein; expressed as Ki (uM); type: functional, organism-based
Mus musculus [3] = test: Average E0771 solid murine mammary tumor volume in BDF1 female mice (n=5) at 36 mg/kg at 14 day post treatment point; Expressed as % T/C; type: functional
Mus musculus [4] = test: Average E0771 solid murine mammary tumor volume in BDF1 female mice (n=5) at 24 mg/kg at 21 day post treatment point; type: functional
Mus musculus [5] = test: Average E0771 solid murine mammary tumor volume in BDF1 female mice (n=5) at 36 mg/kg at 10 day post treatment point; Expressed as % T/C; type: functional
Mus musculus [6] = test: Average E0771 solid murine mammary tumor volume in BDF1 female mice (n=5) at 24 mg/kg at 14 day post treatment point; type: functional
Mus musculus [7] = test: Average E0771 solid murine mammary tumor volume in BDF1 female mice (n=5) at 24 mg/kg at 10 day post treatment point; type: functional
Dihydrofolate reductase = target: T1, Dihydrofolate reductase (Mus musculus, UniProt P00375); test: Inhibition of Dihydrofolate reductase (DHFR) enzyme derived from L1210 cells expressed as Ki (pM); type: cell-based
T1 sequence (P00375 whole entry): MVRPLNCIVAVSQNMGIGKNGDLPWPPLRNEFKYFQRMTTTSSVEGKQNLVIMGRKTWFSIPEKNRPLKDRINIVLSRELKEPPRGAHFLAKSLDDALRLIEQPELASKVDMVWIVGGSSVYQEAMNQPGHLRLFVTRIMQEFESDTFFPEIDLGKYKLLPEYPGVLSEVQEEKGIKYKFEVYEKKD

Mus musculus [8] = test: Average E0771 solid murine mammary tumor volume in BDF1 female mice (n=5) at 24 mg/kg at 14 day post treatment point; Expressed as % T/C; type: functional
Mus musculus [9] = test: Average E0771 solid murine mammary tumor volume in BDF1 female mice (n=5) at 24 mg/kg at 10 day post treatment point; Expressed as % T/C; type: functional
Mus musculus [10] = test: Average E0771 solid murine mammary tumor volume in BDF1 female mice (n=5) at 36 mg/kg at 21 day post treatment point; Expressed as % T/C; type: functional
Mus musculus [11] = test: Average E0771 solid murine mammary tumor volume in BDF1 female mice (n=3) at 36 mg/kg at 21 day post treatment point
Mus musculus [12] = test: Average E0771 solid murine mammary tumor volume in BDF1 female mice (n=3) at 36 mg/kg at 14 day post treatment point
Mus musculus [13] = test: Average E0771 solid murine mammary tumor volume in BDF1 female mice (n=5) at 24 mg/kg at 21 day post treatment point; Expressed as % T/C; type: functional
Mus musculus [14] = species on record: Mus musculus; test: (§2) Inhibition of growth in L1210 murine leukemia cells in culture expressed as IC50 (nM); type: functional, cell-based
Mus musculus [15] = test: Average E0771 solid murine mammary tumor volume in BDF1 female mice (n=5) at 6 mg/kg at 21 day post treatment point; type: functional
Mus musculus [16] = test: Average E0771 solid murine mammary tumor volume in BDF1 female mice (n=5) at 9 mg/kg at 14 day post treatment point; type: functional
Mus musculus [17] = test: Average E0771 solid murine mammary tumor volume in BDF1 female mice (n=5) at 6 mg/kg at 14 day post treatment point; Expressed as % T/C; type: functional
Mus musculus [18] = test: Average E0771 solid murine mammary tumor volume in BDF1 female mice (n=5) at 3 mg/kg at 21 day post treatment point; type: functional
Mus musculus [19] = test: Average E0771 solid murine mammary tumor volume in BDF1 female mice (n=5) at 6 mg/kg at 10 day post treatment point; type: functional
Mus musculus [20] = test: Average E0771 solid murine mammary tumor volume in BDF1 female mice (n=5) at 6 mg/kg at 10 day post treatment point; Expressed as % T/C; type: functional
Mus musculus [21] = test: Average E0771 solid murine mammary tumor volume in BDF1 female mice (n=5) at 3 mg/kg at 21 day post treatment point; Expressed as % T/C; type: functional
Mus musculus [22] = test: Average E0771 solid murine mammary tumor volume in BDF1 female mice (n=5) at 3 mg/kg at 10 day post treatment point; type: functional
Mus musculus [23] = test: Average E0771 solid murine mammary tumor volume in BDF1 female mice (n=5) at 6 mg/kg at 21 day post treatment point; Expressed as % T/C; type: functional
Mus musculus [24] = test: Average E0771 solid murine mammary tumor volume in BDF1 female mice (n=5) at 9 mg/kg at 14 day post treatment point; Expressed as % T/C; type: functional
Mus musculus [25] = test: Average E0771 solid murine mammary tumor volume in BDF1 female mice (n=5) at 3 mg/kg at 14 day post treatment point; Expressed as % T/C; type: functional
Mus musculus [26] = test: Average E0771 solid murine mammary tumor volume in BDF1 female mice (n=5) at 3 mg/kg at 10 day post treatment point; Expressed as % T/C; type: functional
Mus musculus [27] = test: Average E0771 solid murine mammary tumor volume in BDF1 female mice (n=5) at 9 mg/kg at 10 day post treatment point; Expressed as % T/C; type: functional
Mus musculus [28] = test: Average E0771 solid murine mammary tumor volume in BDF1 female mice (n=5) at 9 mg/kg at 21 day post treatment point; type: functional
Mus musculus [29] = test: Average E0771 solid murine mammary tumor volume in BDF1 female mice (n=5) at 3 mg/kg at 14 day post treatment point; type: functional
Mus musculus [30] = test: Average E0771 solid murine mammary tumor volume in BDF1 female mice (n=5) at 6 mg/kg at 14 day post treatment point; type: functional
Mus musculus [31] = test: Average E0771 solid murine mammary tumor volume in BDF1 female mice (n=5) at 9 mg/kg at 21 day post treatment point; Expressed as % T/C; type: functional
Mus musculus [32] = test: Average E0771 solid murine mammary tumor volume in BDF1 female mice (n=5) at 9 mg/kg at 10 day post treatment point; type: functional
L1210 [33] = test: as §2; type: functional, cell-based; details: Mus musculus
L1210 [34] = test: as §1; type: functional, cell-based, Mus musculus

pKi (Mus musculus [2]): 6.35
pKi (Dihydrofolate reductase): 10.74
Structure (SMILES): C#CCC(Cc1cnc2nc(N)nc(N)c2n1)c1ccc(C(=O)NC(CCC(=O)O)C(=O)O)cc1 (configuration not stated)
Average tumor volume (Mus musculus [1]): 48 mm**3
T/C (Mus musculus [3]): 1%
Average tumor volume (Mus musculus [4]): 204 mm**3
T/C (Mus musculus [5]): 31%
Average tumor volume (Mus musculus [6]): 19 mm**3
Average tumor volume (Mus musculus [7]): 62 mm**3
T/C (Mus musculus [8]): 2%
T/C (Mus musculus [9]): 47%
T/C (Mus musculus [10]): 1%
Average tumor volume (Mus musculus [11]): 21 mm**3
Average tumor volume (Mus musculus [12]): 6 mm**3
T/C (Mus musculus [13]): 10%
pIC50 (Mus musculus [14]): 8.70

pKi (Mus musculus [2]): 5.38
pIC50 (L1210 [33]): 8.02
Structure (SMILES): CN(Cc1cnc2nc(N)nc(N)c2n1)c1ccc(C(=O)N[C@@H](CCC(=O)O)C(=O)O)cc1 [METHOTREXATE]
Average tumor volume (Mus musculus [15]): 382 mm**3
Average tumor volume (Mus musculus [16]): 19 mm**3
T/C (Mus musculus [17]): 2%
Average tumor volume (Mus musculus [18]): 1260 mm**3
Average tumor volume (Mus musculus [19]): 34 mm**3
T/C (Mus musculus [20]): 26%
T/C (Mus musculus [21]): 61%
Average tumor volume (Mus musculus [22]): 113 mm**3
T/C (Mus musculus [23]): 18%
T/C (Mus musculus [24]): 2%
T/C (Mus musculus [25]): 15%
T/C (Mus musculus [26]): 86%
T/C (Mus musculus [27]): 3%
Average tumor volume (Mus musculus [28]): 310 mm**3
Average tumor volume (Mus musculus [29]): 187 mm**3
Average tumor volume (Mus musculus [30]): 19 mm**3
T/C (Mus musculus [31]): 15%
Average tumor volume (Mus musculus [32]): 4 mm**3

Structure (SMILES): Nc1nc(N)c2nc(CCc3ccc(C(=O)N[C@@H](CCC(=O)O)C(=O)O)cc3)cnc2n1
pKi (Mus musculus [2]): 6.05
pKi (Dihydrofolate reductase): 11.44
pIC50 (Mus musculus [14]): 8.74

pKi (L1210 [34]): 5.96
pKi (Dihydrofolate reductase): 11.04
pIC50 (L1210 [33]): 8.69
Structure (SMILES): CCCC(Cc1cnc2nc(N)nc(N)c2n1)c1ccc(C(=O)NC(CCC(=O)O)C(=O)O)cc1 (configuration not stated)

pKi (L1210 [34]): 6.00
pKi (Dihydrofolate reductase): < 9.00
pIC50 (L1210 [33]): 6.60
Structure (SMILES): CCCCCC(Cc1cnc2nc(N)nc(N)c2n1)c1ccc(C(=O)NC(CCC(=O)O)C(=O)O)cc1 (configuration not stated)

pKi (Mus musculus [2]): 6.02
pKi (Dihydrofolate reductase): 11.39
Structure (SMILES): CC(Cc1cnc2nc(N)nc(N)c2n1)c1ccc(C(=O)NC(CCC(=O)O)C(=O)O)cc1 (configuration not stated)
pIC50 (Mus musculus [14]): 8.87
